Assay results as given in patent EP2025678A1, “Pyrazolo[3,4-d]pyrimidine compounds and their use as modulators of protein kinase” (Oncalis AG, priority 2007, dated 2009).

Legend:
human EphB4 [1] = target: T1, human EphB4 (Homo sapiens, UniProt P54760); assay: in vitro enzymatic kinase assay EphB4 (ADP Hunter assay kit); format: biochemical; conditions: cell-free; ATP 300uM; poly (Glu4-Tyr) 800uM
T1 sequence (P54760 16-987): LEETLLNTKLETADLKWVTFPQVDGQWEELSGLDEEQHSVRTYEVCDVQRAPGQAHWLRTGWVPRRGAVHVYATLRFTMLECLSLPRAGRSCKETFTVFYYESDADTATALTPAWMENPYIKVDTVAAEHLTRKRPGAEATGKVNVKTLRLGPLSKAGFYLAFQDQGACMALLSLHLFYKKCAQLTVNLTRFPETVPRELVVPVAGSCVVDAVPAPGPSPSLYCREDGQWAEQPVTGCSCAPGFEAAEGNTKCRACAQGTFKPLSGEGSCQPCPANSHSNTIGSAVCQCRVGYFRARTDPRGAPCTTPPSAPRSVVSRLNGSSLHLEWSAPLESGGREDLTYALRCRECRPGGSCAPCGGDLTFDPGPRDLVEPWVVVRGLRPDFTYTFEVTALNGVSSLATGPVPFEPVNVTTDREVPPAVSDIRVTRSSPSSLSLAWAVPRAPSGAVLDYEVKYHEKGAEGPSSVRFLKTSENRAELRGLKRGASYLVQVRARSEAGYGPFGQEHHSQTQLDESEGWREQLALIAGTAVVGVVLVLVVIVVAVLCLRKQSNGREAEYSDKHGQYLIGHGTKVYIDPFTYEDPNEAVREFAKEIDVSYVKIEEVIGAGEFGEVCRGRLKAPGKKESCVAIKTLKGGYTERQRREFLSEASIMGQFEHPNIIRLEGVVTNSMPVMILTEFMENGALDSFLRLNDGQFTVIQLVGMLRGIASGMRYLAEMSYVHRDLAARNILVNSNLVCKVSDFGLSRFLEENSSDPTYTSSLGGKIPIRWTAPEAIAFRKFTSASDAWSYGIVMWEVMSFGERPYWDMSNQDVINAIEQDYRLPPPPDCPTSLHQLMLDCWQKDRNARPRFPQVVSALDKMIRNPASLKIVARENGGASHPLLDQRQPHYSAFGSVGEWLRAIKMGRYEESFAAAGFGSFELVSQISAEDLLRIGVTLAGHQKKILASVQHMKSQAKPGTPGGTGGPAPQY
Description: EphB4 inhibition activity of compounds was measured in an in vitro enzymatic kinase assay using the ADP Hunter assay kit (DiscoveRx Corp.), which measures accumulation of ADP produced by the kinase enzyme activity. EphB4 kinase (2ug/mL) is preincubated with different concentrations of compounds for 15 minutes at room temperature in kinase buffer (HEPES 15mM, MgCl2 10mM, EDTA 0.5mM, NaCl 20mM, Tween-20 0.02%, pH 7.4). ATP (300uM) is added and the mixture is incubated for 30 minutes at room temperature for enzyme activation. The peptide substrate poly (Glu4-Tyr) 800uM is added and the mixture is incubated for 60 minutes at 30°C. An enzyme- coupled reaction produces a red-shifted fluorescent signal that is directly proportional to the amount of ADP in solution. Fluorescence emission is measured at 590nm with excitation at 535nm.

human EphB4 [2] = target: T1, human EphB4; assay: Cellular autophosphorylation assay EphB4 (ELISA) in CHO-EphB4 cells; format: cell-based; parameters: stably transfected with myc-tagged full length human EphB4; expressed in transfected cells; host or cells: CHO (chinese hamster ovary); conditions: ephrinB2/Fc induced autophosphorylation
Description: CHO (chinese hamster ovary) cells were stably transfected with myc-tagged full length human EphB4. A cell line expressing EphB4 of which the phosphorylation was inducible with ephrinB2/Fc was identified and called CHO-EphB4. CHO-EphB4 cells were seeded into 96-well plates and cultured overnight in HAM-F12 medium supplemented with 10% fetal calf serum (FCS). Cells were washed once with PBS and different concentrations of compounds in HAM-F12 medium (final concentration of DMSO in the assay was 1%) were added. Cells were incubated at 37°C for 15 minutes. Ligand ephrinB2/Fc (R&D Systems, 1ug/mL final), which had been pre-clustered with anti-IgG Fc antibody (Jackson ImmunoResearch) for 45 minutes at room temperature, was added and cells were further incubated at 37°C for 45 minutes. Cells were lysed in 30uL lysis buffer per well (20mM Tris pH8, 150mM NaCl, 10% glycerol, 1% Triton X-100, 1mM Na3VO4, 1mM EDTA pH8, 1mM EGTA pH8, 1x protease inhibitor cocktail Sigma). ELISA 96-well plates (Nunc, Maxisorp) were coated with 100uL/well anti-c-myc antibody (Sigma) overnight at 4°C, blocked with 300uL/well 5% milk in TBS/0.005% Tween 20 (TBST) for 1 to 3 hours at room temperature, and incubated with 25uL/well cell lysate overnight at 4°C. ELISA plates were washed twice with TBST and incubated with 100uL/well antiphosphotyrosine HRP-coupled antibody (Upstate) diluted 1:1000 in 5% milk in TBST for 1.5 hour at room temperature and developed with 100uL/well BM BluePOD substrate (Roche). Absorbance was measured at 450nm.

c-Met = target: T2, c-Met (Homo sapiens, UniProt P08581); assay: yeast growth assay, specificity profiling, c-Met; format: cell-based; conditions: Table Y; legend not given
T2 construct: expressed in transfected cells; host or cells: yeast
T2 sequence (P08581 25-1390): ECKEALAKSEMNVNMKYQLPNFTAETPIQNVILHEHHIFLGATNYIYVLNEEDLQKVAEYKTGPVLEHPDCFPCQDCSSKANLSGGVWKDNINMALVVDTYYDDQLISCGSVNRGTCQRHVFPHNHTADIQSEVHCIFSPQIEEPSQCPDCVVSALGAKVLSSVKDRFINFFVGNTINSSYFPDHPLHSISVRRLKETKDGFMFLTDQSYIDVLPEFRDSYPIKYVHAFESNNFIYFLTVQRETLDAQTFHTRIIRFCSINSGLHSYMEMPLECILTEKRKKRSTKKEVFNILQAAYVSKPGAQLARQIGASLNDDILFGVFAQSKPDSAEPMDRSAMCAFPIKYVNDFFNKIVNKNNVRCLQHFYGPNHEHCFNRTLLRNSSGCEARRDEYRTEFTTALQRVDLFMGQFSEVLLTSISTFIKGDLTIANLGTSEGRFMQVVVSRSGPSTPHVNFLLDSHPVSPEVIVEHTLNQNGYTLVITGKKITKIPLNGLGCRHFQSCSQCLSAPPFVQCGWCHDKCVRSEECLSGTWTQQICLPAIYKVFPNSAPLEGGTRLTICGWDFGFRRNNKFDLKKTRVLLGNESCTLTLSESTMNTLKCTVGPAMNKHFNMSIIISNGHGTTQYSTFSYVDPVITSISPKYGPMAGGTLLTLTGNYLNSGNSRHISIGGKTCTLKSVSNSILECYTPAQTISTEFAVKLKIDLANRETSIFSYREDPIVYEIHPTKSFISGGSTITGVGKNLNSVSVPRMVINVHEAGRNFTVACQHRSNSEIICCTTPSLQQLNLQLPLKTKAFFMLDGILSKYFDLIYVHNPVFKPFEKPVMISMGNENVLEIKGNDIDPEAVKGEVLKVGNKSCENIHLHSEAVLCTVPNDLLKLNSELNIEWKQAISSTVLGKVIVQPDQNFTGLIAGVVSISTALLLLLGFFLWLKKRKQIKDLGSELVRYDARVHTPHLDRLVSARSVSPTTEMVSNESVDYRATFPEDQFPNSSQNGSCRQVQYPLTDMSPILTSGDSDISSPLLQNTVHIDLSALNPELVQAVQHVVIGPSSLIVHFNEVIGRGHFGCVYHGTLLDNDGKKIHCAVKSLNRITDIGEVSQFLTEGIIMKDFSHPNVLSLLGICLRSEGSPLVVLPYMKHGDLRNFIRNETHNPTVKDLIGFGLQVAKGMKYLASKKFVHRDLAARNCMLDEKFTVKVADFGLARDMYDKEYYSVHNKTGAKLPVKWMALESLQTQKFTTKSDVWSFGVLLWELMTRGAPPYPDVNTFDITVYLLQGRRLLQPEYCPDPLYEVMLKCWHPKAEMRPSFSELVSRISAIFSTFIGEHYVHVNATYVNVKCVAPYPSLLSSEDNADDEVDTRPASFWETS
Description: (§1) The yeast growth assay was performed as described in "Method for the identification and/or validation of receptor tyrosine kinase inhibitors" WO2005/040413, section "Modes for Carrying out the Invention", Experiment 1 and Experiment 2: Yeast cells carrying plasmids with the RTK of interest were grown in glucose containing medium (repressing expression). Cultures were diluted into galactose containing medium, which induces expression of the kinase. Expression of the kinase inhibits growth of the yeast cells, which allows for positive selection of kinase inhibitors restoring growth of cells.

VEGFR-1 = target: T3, VEGFR-1 (Homo sapiens, UniProt P17948); assay: yeast growth assay, specificity profiling, VEGFR-1; format: cell-based; conditions: Table Y; legend not given
T3 construct: expressed in transfected cells; host or cells: yeast
Description: as §1

VEGFR-2 = target: T4, VEGFR-2 (Homo sapiens, UniProt P35968); assay: yeast growth assay, specificity profiling, VEGFR-2; format: cell-based; conditions: Table Y; legend not given
T4 construct: expressed in transfected cells; host or cells: yeast
T4 sequence (P35968 20-1356): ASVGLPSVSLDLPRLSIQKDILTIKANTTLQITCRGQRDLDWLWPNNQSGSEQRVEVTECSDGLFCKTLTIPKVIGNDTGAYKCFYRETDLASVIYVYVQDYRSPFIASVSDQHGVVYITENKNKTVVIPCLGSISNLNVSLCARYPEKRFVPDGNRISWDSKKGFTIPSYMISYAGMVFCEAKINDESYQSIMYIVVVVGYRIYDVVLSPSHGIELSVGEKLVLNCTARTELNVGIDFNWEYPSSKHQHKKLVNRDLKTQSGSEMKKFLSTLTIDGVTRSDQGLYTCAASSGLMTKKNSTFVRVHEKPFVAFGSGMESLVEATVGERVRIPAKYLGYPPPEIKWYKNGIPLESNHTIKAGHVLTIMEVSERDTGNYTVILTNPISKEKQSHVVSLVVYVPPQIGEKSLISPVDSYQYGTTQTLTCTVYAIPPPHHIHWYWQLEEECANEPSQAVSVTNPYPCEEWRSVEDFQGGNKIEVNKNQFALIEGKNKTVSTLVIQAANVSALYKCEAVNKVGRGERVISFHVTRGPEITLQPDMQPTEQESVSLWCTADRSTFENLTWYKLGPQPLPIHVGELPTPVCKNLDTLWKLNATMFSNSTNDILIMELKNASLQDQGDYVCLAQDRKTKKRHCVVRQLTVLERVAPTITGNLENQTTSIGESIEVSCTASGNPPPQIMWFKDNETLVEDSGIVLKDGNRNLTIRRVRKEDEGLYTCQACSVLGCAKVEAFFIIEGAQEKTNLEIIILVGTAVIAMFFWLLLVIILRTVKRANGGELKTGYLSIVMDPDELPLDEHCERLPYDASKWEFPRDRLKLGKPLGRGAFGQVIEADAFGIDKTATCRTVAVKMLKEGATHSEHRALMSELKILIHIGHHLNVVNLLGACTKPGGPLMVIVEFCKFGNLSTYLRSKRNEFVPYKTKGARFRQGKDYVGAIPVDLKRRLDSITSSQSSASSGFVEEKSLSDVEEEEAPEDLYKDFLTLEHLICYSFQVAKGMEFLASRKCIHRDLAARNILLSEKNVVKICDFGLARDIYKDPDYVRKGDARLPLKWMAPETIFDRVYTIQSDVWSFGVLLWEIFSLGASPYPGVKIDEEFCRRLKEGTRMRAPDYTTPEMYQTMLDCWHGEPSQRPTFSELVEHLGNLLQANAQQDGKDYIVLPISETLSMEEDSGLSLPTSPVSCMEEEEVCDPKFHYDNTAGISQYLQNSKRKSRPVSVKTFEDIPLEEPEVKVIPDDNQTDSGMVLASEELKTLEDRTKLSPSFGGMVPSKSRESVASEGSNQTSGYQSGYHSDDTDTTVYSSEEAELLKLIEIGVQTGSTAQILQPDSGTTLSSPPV
Description: as §1

IGF1R = target: T5, IGF1R (Homo sapiens, UniProt P08069); assay: yeast growth assay, specificity profiling, IGF1R; format: cell-based; conditions: Table Y; legend not given
T5 construct: expressed in transfected cells; host or cells: yeast
Description: as §1

InsR = target: T6, InsR (Homo sapiens, UniProt P06213); assay: yeast growth assay, specificity profiling, InsR; format: cell-based; conditions: Table Y; legend not given
T6 construct: expressed in transfected cells; host or cells: yeast
Description: as §1

PDGFRb = target: T7, PDGFRb (Homo sapiens, UniProt P09619); assay: yeast growth assay, specificity profiling, PDGFRb; format: cell-based; conditions: Table Y; legend not given
T7 construct: expressed in transfected cells; host or cells: yeast
T7 sequence (P09619 33-1106): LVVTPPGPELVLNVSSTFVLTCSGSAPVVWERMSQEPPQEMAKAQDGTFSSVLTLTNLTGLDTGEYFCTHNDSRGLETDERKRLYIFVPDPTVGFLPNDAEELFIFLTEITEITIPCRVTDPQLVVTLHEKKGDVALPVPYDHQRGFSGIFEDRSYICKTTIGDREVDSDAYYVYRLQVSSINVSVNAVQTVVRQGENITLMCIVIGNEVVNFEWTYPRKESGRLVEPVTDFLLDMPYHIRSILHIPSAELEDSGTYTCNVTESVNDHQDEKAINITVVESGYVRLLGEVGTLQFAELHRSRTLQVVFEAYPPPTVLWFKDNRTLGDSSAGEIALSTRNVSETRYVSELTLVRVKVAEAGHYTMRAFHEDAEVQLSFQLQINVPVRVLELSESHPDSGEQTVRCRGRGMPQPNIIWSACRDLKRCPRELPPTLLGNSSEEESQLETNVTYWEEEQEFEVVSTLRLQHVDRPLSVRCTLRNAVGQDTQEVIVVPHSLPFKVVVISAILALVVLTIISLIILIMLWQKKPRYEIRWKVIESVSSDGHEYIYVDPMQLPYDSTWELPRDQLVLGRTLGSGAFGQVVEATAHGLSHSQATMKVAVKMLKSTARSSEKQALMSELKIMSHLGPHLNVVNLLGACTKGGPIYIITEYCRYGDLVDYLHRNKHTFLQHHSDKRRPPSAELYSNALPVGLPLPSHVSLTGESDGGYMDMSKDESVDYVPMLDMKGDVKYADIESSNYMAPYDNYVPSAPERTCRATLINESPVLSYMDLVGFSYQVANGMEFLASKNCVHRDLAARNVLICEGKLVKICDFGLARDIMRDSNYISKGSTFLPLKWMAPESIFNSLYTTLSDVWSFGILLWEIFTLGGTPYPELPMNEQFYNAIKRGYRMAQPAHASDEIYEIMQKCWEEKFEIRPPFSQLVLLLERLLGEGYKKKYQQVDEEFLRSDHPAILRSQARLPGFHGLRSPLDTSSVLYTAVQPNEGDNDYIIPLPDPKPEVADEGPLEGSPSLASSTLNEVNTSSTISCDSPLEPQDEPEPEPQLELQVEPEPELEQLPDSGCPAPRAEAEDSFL
Description: as §1

EGFR = target: T8, EGFR (Homo sapiens, UniProt P00533); assay: yeast growth assay, specificity profiling, EGFR; format: cell-based; conditions: Table Y; legend not given
T8 construct: expressed in transfected cells; host or cells: yeast
Description: as §1

ErbB2 = target: T9, ErbB2 (Homo sapiens, UniProt P04626); assay: yeast growth assay, specificity profiling, ErbB2; format: cell-based; conditions: Table Y; legend not given
T9 construct: expressed in transfected cells; host or cells: yeast
T9 sequence (P04626 23-1255): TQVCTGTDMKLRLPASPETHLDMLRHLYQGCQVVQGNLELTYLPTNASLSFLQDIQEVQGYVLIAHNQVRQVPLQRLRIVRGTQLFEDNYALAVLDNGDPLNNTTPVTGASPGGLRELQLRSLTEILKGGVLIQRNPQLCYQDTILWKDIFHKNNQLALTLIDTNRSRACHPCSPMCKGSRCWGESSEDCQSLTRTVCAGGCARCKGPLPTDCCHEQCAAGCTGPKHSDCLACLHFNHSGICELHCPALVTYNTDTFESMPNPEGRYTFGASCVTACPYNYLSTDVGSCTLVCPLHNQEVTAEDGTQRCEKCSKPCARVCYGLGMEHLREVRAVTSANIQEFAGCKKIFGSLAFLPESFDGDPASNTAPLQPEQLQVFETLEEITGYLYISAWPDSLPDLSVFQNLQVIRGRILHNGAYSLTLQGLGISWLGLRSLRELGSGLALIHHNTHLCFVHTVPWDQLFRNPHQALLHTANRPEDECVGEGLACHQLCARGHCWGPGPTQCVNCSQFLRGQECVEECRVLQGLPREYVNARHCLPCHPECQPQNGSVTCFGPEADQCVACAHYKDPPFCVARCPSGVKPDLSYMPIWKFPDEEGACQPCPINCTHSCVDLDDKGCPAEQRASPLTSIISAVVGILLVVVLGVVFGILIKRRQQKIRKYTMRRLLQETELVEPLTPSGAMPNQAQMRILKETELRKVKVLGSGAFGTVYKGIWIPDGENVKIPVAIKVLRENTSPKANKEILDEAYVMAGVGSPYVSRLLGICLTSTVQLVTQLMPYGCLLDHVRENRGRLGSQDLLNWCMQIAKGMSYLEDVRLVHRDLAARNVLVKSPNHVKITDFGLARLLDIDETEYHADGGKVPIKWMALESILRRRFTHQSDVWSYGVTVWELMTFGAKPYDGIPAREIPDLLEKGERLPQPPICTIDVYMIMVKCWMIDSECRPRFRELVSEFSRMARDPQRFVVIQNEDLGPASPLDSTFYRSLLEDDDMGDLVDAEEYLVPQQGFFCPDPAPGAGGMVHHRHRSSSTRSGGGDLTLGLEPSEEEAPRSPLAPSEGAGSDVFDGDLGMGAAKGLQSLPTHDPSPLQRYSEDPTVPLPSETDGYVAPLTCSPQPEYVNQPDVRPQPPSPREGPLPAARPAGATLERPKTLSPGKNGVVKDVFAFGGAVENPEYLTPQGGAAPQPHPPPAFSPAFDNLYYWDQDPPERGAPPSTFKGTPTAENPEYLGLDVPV
Description: as §1

IC50 (human EphB4 [1]) [µM]	SMILES	also measured
1 to 10	Cc1ccc(Nc2nc(NCc3ccco3)nc3c2cnn3C)c(C)c1	
1 to 10	CCCNc1nc(Nc2ccc(Cl)cc2C)c2cnn(C)c2n1	
1 to 10	Cc1cc(Cl)ccc1Nc1nc(NC2CCCC2)nc2c1cnn2C	IC50 (human EphB4 [2]): 1 to 10 µM
1 to 10	Cc1ccccc1Nc1nc(Nc2ccccc2)nc2c1cnn2C	
1 to 10	Cc1ccccc1Nc1nc(Nc2ccc(F)cc2)nc2c1cnn2C	
< 1	CCCNc1nc(Nc2ccccc2C)c2cnn(C)c2n1	
< 1	CCCCNc1nc(Nc2ccccc2C)c2cnn(C)c2n1	IC50 (human EphB4 [2]): < 1 µM
< 1	COCCNc1nc(Nc2ccccc2C)c2cnn(C)c2n1	
< 1	COCCCNc1nc(Nc2ccccc2C)c2cnn(C)c2n1	
< 1	C=CCNc1nc(Nc2ccccc2C)c2cnn(C)c2n1	
< 1	Cc1ccccc1Nc1nc(NC2CCCC2)nc2c1cnn2C	
1 to 10	Cc1ccccc1Nc1nc(NCc2ccccc2)nc2c1cnn2C	
1 to 10	Cc1ccccc1Nc1nc(NCc2ccccc2Cl)nc2c1cnn2C	IC50 (human EphB4 [2]): < 1 µM
< 1	Cc1ccccc1Nc1nc(NCc2ccco2)nc2c1cnn2C	IC50 (human EphB4 [2]): 1 to 10 µM
1 to 10	Cc1ccccc1Nc1nc(N(C)C)nc2c1cnn2C	
1 to 10	Cc1ccccc1Nc1nc(N2CCCC2)nc2c1cnn2C	
< 1	CCNc1nc(Nc2ccccc2C)c2cnn(C)c2n1	IC50 (human EphB4 [2]): < 1 µM
< 1	CNc1nc(Nc2ccccc2C)c2cnn(C)c2n1	
1 to 10	Cc1ccccc1Nc1nc(N2CCOCC2)nc2c1cnn2C	
< 1	CCN(CC)CCNc1nc(Nc2ccccc2C)c2cnn(C)c2n1	
1 to 10	Cc1ccccc1Nc1nc(N2CCN(C(=O)c3ccco3)CC2)nc2c1cnn2C	
1 to 10	CCNc1nc(Nc2ccc(C)cc2C)c2cnn(C)c2n1	
1 to 10	CNc1nc(Nc2ccc(C)cc2C)c2cnn(C)c2n1	
	CNc1nc(Nc2ccc(Cl)cc2C)c2cnn(C)c2n1 [[drawing]]	Specificity profiling in the yeast growth assay: c-Met (c-Met): 0; Specificity profiling in the yeast growth assay: VEGFR-1 (VEGFR-1): 0; Specificity profiling in the yeast growth assay: VEGFR-2 (VEGFR-2): 0; Specificity profiling in the yeast growth assay: IGF1R (IGF1R): 0; Specificity profiling in the yeast growth assay: InsR (InsR): 0; Specificity profiling in the yeast growth assay: PDGFRb (PDGFRb): 0; Specificity profiling in the yeast growth assay: EGFR (EGFR): 0; Specificity profiling in the yeast growth assay: ErbB2 (ErbB2): 0
1 to 10	CNc1nc(Nc2ccc(Cl)cc2C)c2cnn(C)c2n1 [drawing 56]	IC50 (human EphB4 [2]): > 10 µM
